Here are results for eleven compounds from ChEMBL document CHEMBL1201862, “PubChem BioAssay data set” (2004).

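Growth conditions: 96-well plates. Treatment: test compound, 48 hours, 5 concentrations. Analysis: linear interpolation between bracketing concentrations; unreached endpoints set to highest concentration. At the GI50, growth is halved.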 Active and inactive are the calls of the source. No stated cut-off is given here; in the data, active = GI50 up to about 1.1 µM and inactive = higher. Bounds are passed on as bounds.

Among the test systems are XF498; DMS-114; SNB-78; DMS-273; HOP-18; LXFL 529; RXF 631; DLD-1; BT-549.
Holding throughout (assay): NCI tumour cell line growth inhibition, 48 h

For the compound `C[C@]12CCc3nonc3C1CC[C@@H]1C2CC[C@]2(C)C(=O)CCC12` (some centres undefined), the GI50 with XF498 was 17.5 µM (inactive); in the assay on DMS-114 it was 22.4 µM (inactive); in the assay with SNB-78, 59.6 µM (inactive); with DMS-273, 20.7 µM (inactive); in the assay with HOP-18, > 100 µM (inactive); in the assay on LXFL 529, 35.9 µM (inactive). Moreover, the GI50 in the assay on RXF 631 is 57.8 µM (inactive); in the assay with DLD-1, 50 µM (inactive).

In the case of `COC(=O)C(=O)C(C(=O)C(=O)Nc1ccc([N+](=O)[O-])cc1[N+](=O)[O-])c1nc2ccc([N+](=O)[O-])cc2nc1O` (centres undefined), the GI50 in the assay with XF498 is 76.7 µM (inactive); with DMS-114 it was > 100 µM (inactive); in the assay with SNB-78 it was > 100 µM (inactive); in the assay on DMS-273 it was > 100 µM (inactive); in the assay with HOP-18, 22.1 µM (inactive); with LXFL 529, > 100 µM (inactive). Moreover, the GI50 with RXF 631 and in the assay on DLD-1 was > 100 µM (inactive) in each case.

As to `NC(CCCNc1ccc(O)cc1)C(=O)O` (centres undefined), the GI50 in the assay with XF498 is 22.5 µM (inactive); with DMS-114 it was 24.9 µM (inactive); with SNB-78, > 83.6 µM (inactive); with DMS-273, > 100 µM (inactive); in the assay on HOP-18 it was > 76.4 µM (inactive); in the assay with LXFL 529 it was 18.3 µM (inactive). Further, the GI50 in the assay on RXF 631 is 54.3 µM (inactive); in the assay with DLD-1, 20.4 µM (inactive).

As to `COc1cc(OC)c2c(O)cc(CC(C)O)cc2c1` (centres undefined), the GI50 in the assay on XF498, with DMS-114, with SNB-78, in the assay on DMS-273, in the assay on HOP-18 and with LXFL 529 was > 100 µM (inactive) throughout. Further, the GI50 with RXF 631 and with DLD-1 was > 100 µM (inactive) throughout.

On to `COc1cccc2c1C(=O)c1c(O)c3c(c(O)c1C2=O)C[C@@](O)(C(=O)CO)CC3OC1CC(NCCCC(OC(C)=O)OC(C)=O)C(O)C(C)O1` (some centres undefined), for which the GI50 in the assay with XF498 was 0.00183 µM (active); in the assay with DMS-114 it was 0.00703 µM (active); in the assay on SNB-78 it was 0.00224 µM (active); in the assay with DMS-273, < 0.0001 µM (active); in the assay with HOP-18 it was 0.00413 µM (active); in the assay on LXFL 529, 0.00262 µM (active). Moreover, the GI50 in the assay on RXF 631 was < 0.0001 µM (active); in the assay on DLD-1, 0.0023 µM (active).

Turning to `COc1ccc(C(c2ccccc2)(c2ccc(OC)cc2)N2C(=O)NC3C(CCCCC(=O)NCCCCCCOP(OCCC#N)N(C(C)C)C(C)C)SCC32)cc1` (centres undefined), the GI50 was 15.8 µM (inactive) with XF498; 17.7 µM (inactive) in the assay on DMS-114; 16.2 µM (inactive) in the assay on SNB-78; 12.7 µM (inactive) in the assay on DMS-273; 11.8 µM (inactive) in the assay with HOP-18; 11.9 µM (inactive) in the assay on LXFL 529. The GI50 in the assay with RXF 631 is 4.06 µM (inactive); in the assay with DLD-1, 14.8 µM (inactive).

With `NC1=NC(c2ccccc2)CC(c2cc(Cl)cc(Br)c2O)=N1` (centres undefined), the GI50 with XF498 is 13.7 µM (inactive); in the assay with DMS-114, 8.69 µM (inactive); in the assay with SNB-78 it was 17.2 µM (inactive); in the assay with DMS-273, 7.55 µM (inactive); with HOP-18, 17.7 µM (inactive); in the assay with LXFL 529, 16.7 µM (inactive). The GI50 is 17.5 µM (inactive) with RXF 631 and 12 µM (inactive) in the assay with DLD-1.

On to `CN(C)CC1CCCCCCCCCC(CN(C)C)C1=O` (centres undefined), for which the GI50 with XF498, with DMS-114, with SNB-78, in the assay on DMS-273, in the assay with HOP-18 and in the assay on LXFL 529 was > 100 µM (inactive) throughout. In addition, the GI50 was > 100 µM (inactive) with RXF 631, 6.21 µM (inactive) in the assay on BT-549 and > 100 µM (inactive) in the assay with DLD-1.

Turning to `NC(=O)c1ncn(Cc2ccccc2)c1CNC(N)=S`, the GI50 in the assay on XF498, in the assay on DMS-114, in the assay on SNB-78, in the assay on DMS-273, with HOP-18 and in the assay with LXFL 529 was > 100 µM (inactive) in each case. Moreover, the GI50 in the assay on RXF 631 and in the assay with DLD-1 was > 100 µM (inactive) in each case.

`N=C(NC(=N)Nc1ccc(S(=O)(=O)Nc2cnc3ccccc3n2)cc1)Nc1ccc(Br)cc1`: the GI50 with XF498, in the assay with DMS-114, in the assay with SNB-78, with DMS-273, with HOP-18 and in the assay on LXFL 529 was > 100 µM (inactive) in each case. For the same compound, the GI50 with RXF 631 and in the assay with DLD-1 was > 100 µM (inactive) throughout.

Consider `Fc1cccc(Cl)c1C1SCc2nc3ccccc3n21` (centres undefined), for which the GI50 in the assay on XF498 was 27.7 µM (inactive); in the assay with DMS-114 it was 20.7 µM (inactive); in the assay on SNB-78 it was 22.2 µM (inactive); with DMS-273 it was 22.6 µM (inactive); in the assay with HOP-18, 29.7 µM (inactive); with LXFL 529, 35.9 µM (inactive). Also, the figures for the GI50 in the assay on RXF 631 and in the assay on DLD-1 were 25.3 µM (inactive) and 28.8 µM (inactive), respectively.
